# Results: patent US12509468B2, “Quindoline compounds and uses thereof” (Arizona Board of Regents on Behalf of the University of …, priority 2019, dated 2025)
# Tests used:
# [1] = test system: c-Myc oligomer (parallel G-quadruplex); assay: Circular dichroism melting (ΔTm) with 1 equivalent of ligand; assay type: binding; settings: increase in melting temperature with 1 equivalent of ligand (DNA:Ligand=1:1)
# Method: Non-labeled oligomers were prepared as described for FRET (Example VII). Ligands interacting with the c-Myc FRET oligomer are further examined for DNA secondary structure stabilization by CD (Sun et al., 2005). Briefly, the CD absorption spectra at 262 nm (parallel G-quadruplex) with increasing temperatures (4-95° C.) is examined in the absence and presence of 1 equivalence of ligand. TM is calculated by GraphPad Prizm using a top-to-bottom nonlinear fit, and ΔTM are calculated for each ligands.
# [2] = test system: DNA oligomer containing the G-quadruplex forming region of the c-Myc promoter; assay: FRET assay with c-Myc G-quadruplex oligomer (ED35); assay type: binding; settings: concentration of ligand that decreases relative fluorescence of DNA FRET probe (1 μM) by 35%
# Method: All synthesized ligands are examined with a DNA oligomer containing the G-quadruplex forming region of the c-Myc promoter (d[[…]]). The oligomer is tagged with a 5′-FAM fluorophore and a 3′-Black Hole Quencher molecule. 1 μM oligomer is linearized by heating at 95° C. for 5 minutes in a 50 mM Tris-Acetate buffer (pH 7.1) and slowly cooled back to room temperature, allowing formation of a G-quadruplex. Ligand is added to the oligomer probe at various concentrations spanning a 2-3 log range (high dose of 10 μM), allowed to incubate for 15 minutes in the dark and fluorescence is read on the BioTek Synergy HT spectrophotometer (Biotek, Winooski, VT). Drug autofluorescence is subtracted, data is normalized to oligomer only, and ED35s are calculated from data fit by a sigmoidal top-to-bottom nonlinear regression. ED35s<10 μM are further analyzed by circular dichroism (CD).
# Experimental values for compounds tested according to one or more of the preceding examples are reported in the following table, including, ED35 is the concentration of ligand that decreases the relative fluorescence of a DNA FRET probe (1 μM) by 35% (identified as the threshold to minimize false negatives). ED35 values are reported in ranges: A: >10 μM; B: ≤10 μM.
# PDGF-Rβ G-quadruplex = assay: Competition dialysis, ligand bound to G-quadruplex; assay type: binding; settings: 2 μM of compound
# Method: (§1) Following the competition dialysis assay method of the Chaires group (Ragazzon et al., Methods 2007, 42, 173-182, which is hereby incorporated by reference in its entirety) using 2 μM of the referenced compound, the concentration of ligand bound to G-quadruplex structure for a variety of target genes were determined.
# HIF-1α G-quadruplex = assay: Competition dialysis, ligand bound to G-quadruplex; assay type: binding; settings: 2 μM of compound
# Method: as §1
# Bcl-2 G-quadruplex = assay: Competition dialysis, ligand bound to G-quadruplex; assay type: binding; settings: 2 μM of compound
# Method: as §1
# VEGF G-quadruplex = assay: Competition dialysis, ligand bound to G-quadruplex; assay type: binding; settings: 2 μM of compound
# Method: as §1
# PDGFA G-quadruplex = assay: Competition dialysis, ligand bound to G-quadruplex; assay type: binding; settings: 2 μM of compound
# Method: as §1
# hTERT G-quadruplex = assay: Competition dialysis, ligand bound to G-quadruplex; assay type: binding; settings: 2 μM of compound
# Method: as §1
# MYC G-quadruplex = assay: Competition dialysis, ligand bound to G-quadruplex; assay type: binding; settings: 2 μM of compound
# Method: as §1
# Telomeric G-quadruplex = assay: Competition dialysis, ligand bound to G-quadruplex; assay type: binding; settings: 2 μM of compound
# Method: as §1
# G4-deleted AR reporter = assay: Dual reporter, Gaussia luciferase driven by mutant AR promoter lacking the G4 element, in LNCaP; assay type: cell-based; settings: LNCaP stable cells, 10 μM, 12 hours
# From the text: (§2) To measure the dependency of GSA0932-mediated AR suppression on the AR G4-element, we generated a stable LNCaP cell lines expressing a dual reporter in which Gaussia luciferase is driven by either a wild type or a mutant AR promoter lacking the G4 element, and secreted alkaline phosphatase (SEAP) is driven by a constitutive promoter. […] However, GSA0932 had no effect on the G4-deleted AR reporter (FIG. 1E). […] Knocking down NCL expression alleviated the GSA0932 inhibitory activity against AR mRNA expression compared with control cells (FIG. 1G) (LNCaP cells were transfected with scrambled (Scr) or NCL siRNAs and […] post-transfection, cells were treated with DMSO, 10 μM GSA0932, or […] GSA1502 for 12 hours. Extracted RNA was analyzed for AR expression by RT-qPCR).
# [3] = test system: NCL bound to the G4-element of the AR promoter; assay: ChIP of NCL on AR G4; assay type: cell-based; settings: LNCaP and C4-2 cells, 10 μM
# AR = AR protein expression by immunoblotting in prostate cancer cells; assay type: cell-based; settings: for concentration of maximal inhibitory activity on AR expression: 24 h of treatment
# Method: (§3) This example provides specific compounds of the present invention suppress AR protein expression in androgen-dependent (LNCaP) and CRPC tumor cells ([…]) after a 24 h treatment at 10 μM (FIG. 1A) (Cell lysates from LNCaP and C4-2 cells treated with GSA compounds at a concentration of 10 μM for 24 hours were analyzed for expression of AR, NCL, and GAPDH by immunoblotting). GSA0932 suppress AR expression in 22RV1 and VCaP tumor cells, after 24 h of treatment reaching its maximal inhibitory activity at a concentration of 3 and 5 μM respectively (FIG. 1B) (Cell lysates from indicated prostate cancer cell lines treated with increasing concentrations GSA0932 for 24 hours were analyzed for AR, NCL, and GAPDH by immunoblotting). […] Values are means±s.e.m; p<0.05 (*); n=3).
# AR mRNA = AR mRNA expression by RT-qPCR; assay type: cell-based; settings: 10 μM; for AR mRNA: LNCaP and C4-2 cells, 12 and 24 hours
# Method: as §3, §2
# [4] = test system: RWPE non-malignant prostate cells; assay: Cell viability by MTT, 48 h; assay type: cell-based
# From the text: (§4) Table V provides the IC50 values for GSA0932.
# PC3 cells = assay: Cell viability by MTT, 48 h; assay type: cell-based; settings: Homo sapiens, PC-3, PC3, 48 h
# From the text: as §4
# C4-2 cells = assay: Cell viability by MTT, 48 h; assay type: cell-based; settings: C4-2, 48 h
# From the text: as §4
# 22Rv1 cells = assay: Cell viability by MTT, 48 h; assay type: cell-based; settings: Homo sapiens, 22Rv1, 48 h
# From the text: as §4
# VCaP cells = assay: Cell viability by MTT, 48 h; assay type: cell-based; settings: Homo sapiens
# From the text: as §4
# LNCaP cells = assay: Cell viability by MTT, 48 h; assay type: cell-based; settings: Homo sapiens
# From the text: as §4
# [5] = test system: AR-positive tumor cells versus non-AR expressing cells; assay: Cytotoxic activity across prostate cell lines by MTT; assay type: cell-based; settings: 48 h
# From the text: as §4
# ARv7 splice variant = ARv7 splice variant expression by immunoblotting in 22RV1; assay type: cell-based; settings: 22RV1 cells, 24 h
# Method: as §3
# KLK3, also known as PSA = assay: mRNA expression of AR target gene by RT-qPCR; assay type: cell-based; settings: 12 hours; 10 μM (LNCaP, C4-2), 5 μM (VCaP), 3 μM (22RV1)
# [6] = test system: wild type AR promoter (AR G4) reporter; assay: Dual reporter, Gaussia luciferase driven by wild type AR promoter, in LNCaP; assay type: cell-based; settings: LNCaP stable cells, 10 μM, 12 hours
# From the text: as §2
smiles,measurement,setting,value
c1ccc2c3c4c(nc2c1)c1ccccc1n4CCCN3CCN1CCOCC1 [Compound 1],ΔTm,[1],A (A: 0-10° C.)
same,ED35,[2],A (A: >10 μM)
OC1CCN(CCN2CCCn3c4ccccc4c4nc5ccccc5c2c43)CC1 [Compound 2],ΔTm,[1],A (A: 0-10° C.)
same,ED35,[2],A (A: >10 μM)
c1ccc2c3c4c(nc2c1)c1ccccc1n4CCCN3CCCN1CCOCC1 [Compound 3],ΔTm,[1],A (A: 0-10° C.)
same,ED35,[2],B (B: ≤10 μM)
same,concentration of ligand bound to G-quadruplex structure,PDGF-Rβ G-quadruplex,0.0 µM
same,concentration of ligand bound to G-quadruplex structure,HIF-1α G-quadruplex,4.0 µM
same,concentration of ligand bound to G-quadruplex structure,Bcl-2 G-quadruplex,3.0 µM
same,concentration of ligand bound to G-quadruplex structure,VEGF G-quadruplex,3.0 µM
same,concentration of ligand bound to G-quadruplex structure,PDGFA G-quadruplex,0.5 µM
same,concentration of ligand bound to G-quadruplex structure,hTERT G-quadruplex,10.5 µM
same,concentration of ligand bound to G-quadruplex structure,MYC G-quadruplex,1.0 µM
same,concentration of ligand bound to G-quadruplex structure,Telomeric G-quadruplex,1.0 µM
OCCCN1CCCn2c3ccccc3c3nc4ccccc4c1c32 [Compound 4],ΔTm,[1],A (A: 0-10° C.)
same,ED35,[2],B (B: ≤10 μM)
CN1CCN(CCCN2CCCn3c4ccccc4c4nc5ccccc5c2c43)CC1 [Compound 5],ΔTm,[1],A (A: 0-10° C.)
same,ED35,[2],A (A: >10 μM)
Cl.c1ccc2c3c4c(nc2c1)c1ccccc1n4CCCN3CCCN1CCCCCC1 [Compound 6],ΔTm,[1],A (A: 0-10° C.)
same,ED35,[2],A (A: >10 μM)
OC1CCN(CCCN2CCCn3c4ccccc4c4nc5ccccc5c2c43)CC1 [Compound 7],ΔTm,[1],A (A: 0-10° C.)
same,ED35,[2],B (B: ≤10 μM)
CN1CCN(C(=O)NCCN2CCCn3c4ccccc4c4nc5ccccc5c2c43)CC1 [Compound 8],ΔTm,[1],B (B: >10° C.)
same,ED35,[2],B (B: ≤10 μM)
O=C(NCCN1CCCn2c3ccccc3c3nc4ccccc4c1c32)C1C[C@@H](O)CN1 (stereo partly drawn) [Compound 9],ΔTm,[1],B (B: >10° C.)
same,ED35,[2],B (B: ≤10 μM)
CN1CCN(C(=O)NCCCN2CCCn3c4ccccc4c4nc5ccccc5c2c43)CC1 [Compound 10],ΔTm,[1],A (A: 0-10° C.)
same,ED35,[2],B (B: ≤10 μM)
same,concentration of ligand bound to G-quadruplex structure,PDGF-Rβ G-quadruplex,8.3 µM
same,concentration of ligand bound to G-quadruplex structure,HIF-1α G-quadruplex,3.3 µM
same,concentration of ligand bound to G-quadruplex structure,Bcl-2 G-quadruplex,8.3 µM
same,concentration of ligand bound to G-quadruplex structure,VEGF G-quadruplex,2.5 µM
same,concentration of ligand bound to G-quadruplex structure,PDGFA G-quadruplex,1.8 µM
same,concentration of ligand bound to G-quadruplex structure,hTERT G-quadruplex,9.5 µM
same,concentration of ligand bound to G-quadruplex structure,MYC G-quadruplex,6.8 µM
same,concentration of ligand bound to G-quadruplex structure,Telomeric G-quadruplex,2.9 µM
O=C(NCCCN1CCCn2c3ccccc3c3nc4ccccc4c1c32)C1C[C@@H](O)CN1 (stereo partly drawn) [Compound 11],ΔTm,[1],B (B: >10° C.)
same,ED35,[2],B (B: ≤10 μM)
c1ccc2c3c4c(nc2c1)c1ccccc1n4CCCN3CCCNc1ncnc2nc[nH]c12 [Compound 12],ΔTm,[1],A (A: 0-10° C.)
same,ED35,[2],B (B: ≤10 μM)
CN1CCN(C(=O)N2C[C@H](O)CC2C(=O)NCCCN2CCCn3c4ccccc4c4nc5ccccc5c2c43)CC1 (stereo partly drawn) [Compound 13],ΔTm,[1],A (A: 0-10° C.)
same,ED35,[2],B (B: ≤10 μM)
NCCCN1CCCn2c3ccccc3c3nc4ccccc4c1c32 [Compound 14],ΔTm,[1],A (A: 0-10° C.)
same,ED35,[2],B (B: ≤10 μM)
c1ccc2c3c4c(nc2c1)c1ccccc1n4CCCN3CCCN1CCCCC1 [Compound 15],ED35,[2],B (B: ≤10 μM)
OC1CCN(CCN2CCCn3c4ccccc4c4nc5ccccc5c2c43)CC1 [GSA0932],effect on G4-deleted AR reporter,G4-deleted AR reporter,had no effect
same,amount of NCL bound to the G4-element of the AR promoter,[3],increases the amount of NCL bound
same,concentration of maximal inhibitory activity on AR expression,AR; 22RV1 cells,3 µM
same,concentration of maximal inhibitory activity on AR expression,AR; VCaP cells,5 µM
same,AR mRNA,AR mRNA,significantly decreased
same,inhibitory activity against AR mRNA expression after NCL knockdown,"AR mRNA; LNCaP cells, NCL siRNA versus scrambled, 12 hours",alleviated
same,IC50,[4],5400 ± 50 nM
same,IC50,PC3 cells,4300 ± 160 nM
same,IC50,C4-2 cells,2000 ± 40 nM
same,IC50,22Rv1 cells,900 ± 110 nM
same,IC50,VCaP cells,2800 ± 30 nM
same,IC50,LNCaP cells,1400 ± 260 nM
same,"cytotoxic activity, AR-positive versus non-AR expressing cells",[5],stronger cytotoxic activity against AR-positive tumor cells than non-AR expressing cells
same,expression of ARv7 splice variant,ARv7 splice variant,inhibits the expression
same,mRNA expression of AR target gene KLK3 (PSA),"KLK3, also known as PSA",suppressed mRNA expression
same,luciferase activity of wild type reporter,[6],significantly decreases luciferase activity
CN(C)CCN1CCCn2c3ccccc3c3nc4ccccc4c1c32 [GSA1502],AR protein expression,"AR; LNCaP and C4-2 cells, 24 h, 10 μM",does not affect
same,AR mRNA,AR mRNA,does not affect
